“And” between values parts separate entries of the source, which are not always exact repeats. Identical values can stand only once.
Experiments:
Settings in all cases: Compound Concentration 10.0 uM, Hit No
[1] = target: N-glycosylase/DNA lyase (Homo sapiens) (UniProt O15527);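 further: OGG1 cleavage of a quenched duplex DNA oligonucleotide, coupled to APE1 for strand incision, read as fluorescence at 594 nm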
Description: Inhibition of OGG1 by quantifying inhibition of OGG1-mediated cleavage and dissociation of quenched duplex DNA oligonucleotides, measured as fluorescence at 594 nm. To generate a functional strand incision and increase turn-over this assay is coupled to APE1.

[2] = target: Endonuclease 8-like 1 (Homo sapiens) (UniProt Q96FI4);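 further: fluorescence at 594 nm from quenched duplex DNA oligonucleotides released by NEIL1 cleavage and strand separation, reported as reduction of this enzyme activity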
Description: Inhibition of NEIL1 by quantifying inhibition of NEIL1-mediated cleavage and dissociation of quenched duplex DNA oligonucleotides, measured as fluorescence at 594 nm.

[3] = target: G/T mismatch-specific thymine DNA glycosylase (Homo sapiens) (UniProt Q13569);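 further: human TDG cleavage of quenched duplex DNA oligonucleotides coupled to APE1, strand release read as fluorescence at 594 nm, inhibition of TDG activity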
Description: Inhibition of TDG by quantifying inhibition of TDG-mediated cleavage and dissociation of quenched duplex DNA oligonucleotides, measured as fluorescence at 594 nm. To generate a functional strand incision and increase turn-over this assay is coupled to APE1.

[4] = target: T1, Adenine DNA glycosylase (Homo sapiens) (UniProt Q9UIF7);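 further: human MUTYH activity read as 594 nm fluorescence from cleavage and release of a quenched DNA duplex, coupled with APE1 for strand incision, lower signal meaning inhibition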
T1 sequence (whole entry): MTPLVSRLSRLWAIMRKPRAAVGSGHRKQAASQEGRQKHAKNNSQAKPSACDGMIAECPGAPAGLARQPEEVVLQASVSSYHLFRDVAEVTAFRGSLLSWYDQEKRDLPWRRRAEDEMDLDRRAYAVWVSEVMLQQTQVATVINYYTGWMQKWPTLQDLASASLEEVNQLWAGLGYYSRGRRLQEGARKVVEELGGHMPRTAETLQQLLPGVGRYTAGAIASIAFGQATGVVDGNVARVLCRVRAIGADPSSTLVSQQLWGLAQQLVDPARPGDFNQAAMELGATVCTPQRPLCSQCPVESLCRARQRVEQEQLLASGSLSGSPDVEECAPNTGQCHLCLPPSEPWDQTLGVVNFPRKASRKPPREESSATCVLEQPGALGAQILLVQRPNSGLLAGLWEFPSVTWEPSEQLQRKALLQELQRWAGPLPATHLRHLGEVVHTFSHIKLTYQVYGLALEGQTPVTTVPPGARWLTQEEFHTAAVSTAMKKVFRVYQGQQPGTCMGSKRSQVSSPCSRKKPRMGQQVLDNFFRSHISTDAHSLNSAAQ
Description: Inhibition of MUTYH by quantifying inhibition of MUTYH-mediated cleavage and dissociation of quenched duplex DNA oligonucleotides, measured as fluorescence at 594 nm. To generate a functional strand incision and increase turn-over this assay is coupled to APE1.

[5] = target: T2, Endonuclease 8-like 2 (Homo sapiens) (UniProt Q969S2);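 further: fluorescence at 594 nm reports NEIL2 cutting and release of a quenched double-stranded DNA oligo substrate, reduced signal read as inhibition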
T2 sequence (whole entry): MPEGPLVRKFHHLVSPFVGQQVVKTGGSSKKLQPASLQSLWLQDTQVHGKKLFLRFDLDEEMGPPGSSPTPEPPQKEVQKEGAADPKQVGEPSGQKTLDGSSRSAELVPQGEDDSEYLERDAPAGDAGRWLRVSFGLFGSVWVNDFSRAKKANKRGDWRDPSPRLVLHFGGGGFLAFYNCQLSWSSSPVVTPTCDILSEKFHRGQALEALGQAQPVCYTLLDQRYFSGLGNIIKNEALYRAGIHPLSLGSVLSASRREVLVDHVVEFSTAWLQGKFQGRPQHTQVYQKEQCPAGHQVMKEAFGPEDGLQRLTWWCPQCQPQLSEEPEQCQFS
Description: Inhibition of NEIL2 by quantifying inhibition of NEIL2-mediated cleavage and dissociation of quenched duplex DNA oligonucleotides, measured as fluorescence at 594 nm.

[6] = target: DNA-3-methyladenine glycosylase (Homo sapiens) (UniProt P29372);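 further: enzyme assay where MPG cuts a quenched duplex DNA oligonucleotide probe, paired with APE1 for strand incision and turnover, read as fluorescence at 594 nm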
Description: Inhibition of MPG by quantifying inhibition of MPG-mediated cleavage and dissociation of quenched duplex DNA oligonucleotides, measured as fluorescence at 594 nm. To generate a functional strand incision and increase turn-over this assay is coupled to APE1.

[7] = target: Uracil-DNA glycosylase (Homo sapiens) (UniProt P13051);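 further: UNG excision on a quenched double-stranded DNA oligo probe, with APE1 added for strand incision and turnover, read as fluorescence at 594 nm as strands separate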
Description: Inhibition of UNG by quantifying inhibition of UNG-mediated cleavage and dissociation of quenched duplex DNA oligonucleotides, measured as fluorescence at 594 nm. To generate a functional strand incision and increase turn-over this assay is coupled to APE1.

[8] = target: Methyl-CpG-binding domain protein 4 (Homo sapiens) (UniProt O95243);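 further: MBD4 activity read as fluorescence at 594 nm from cleavage and release of a quenched duplex DNA oligonucleotide, with APE1 coupled to incise the strand and raise turnover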
Description: Inhibition of MBD4 by quantifying inhibition of MBD4-mediated cleavage and dissociation of quenched duplex DNA oligonucleotides, measured as fluorescence at 594 nm. To generate a functional strand incision and increase turn-over this assay is coupled to APE1.

[9] = target: T3, Single-strand selective monofunctional uracil DNA glycosylase (Homo sapiens) (UniProt Q53HV7);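 further: enzymatic SMUG1 assay coupled with APE1, reading fluorescence at 594 nm released when a quenched double-stranded DNA oligonucleotide substrate is cleaved and separated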
T3 sequence (whole entry): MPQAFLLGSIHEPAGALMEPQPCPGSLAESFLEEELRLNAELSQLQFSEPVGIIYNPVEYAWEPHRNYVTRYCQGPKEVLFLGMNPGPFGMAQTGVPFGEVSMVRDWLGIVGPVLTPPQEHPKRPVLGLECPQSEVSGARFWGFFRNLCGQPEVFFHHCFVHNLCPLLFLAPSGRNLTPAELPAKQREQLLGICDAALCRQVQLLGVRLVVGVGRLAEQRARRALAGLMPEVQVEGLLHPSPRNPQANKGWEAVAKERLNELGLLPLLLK
Description: Inhibition of SMUG1 by quantifying inhibition of SMUG1-mediated cleavage and dissociation of quenched duplex DNA oligonucleotides, measured as fluorescence at 594 nm. To generate a functional strand incision and increase turn-over this assay is coupled to APE1.

[10] = target: T4, Endonuclease III-like protein 1 (Homo sapiens) (UniProt P78549);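 further: enzyme assay tracking NTHL1 cutting and release of a quenched double-stranded DNA oligo substrate, read as fluorescence at 594 nm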
T4 sequence (whole entry): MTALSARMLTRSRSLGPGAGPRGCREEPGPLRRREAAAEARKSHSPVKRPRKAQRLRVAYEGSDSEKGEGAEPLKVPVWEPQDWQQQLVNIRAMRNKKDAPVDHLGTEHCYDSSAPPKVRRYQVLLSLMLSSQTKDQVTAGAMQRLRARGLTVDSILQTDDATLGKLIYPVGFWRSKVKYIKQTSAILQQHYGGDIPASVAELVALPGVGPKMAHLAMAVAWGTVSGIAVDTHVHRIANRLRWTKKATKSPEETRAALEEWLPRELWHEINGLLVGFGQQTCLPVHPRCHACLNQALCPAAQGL
Description: Inhibition of NTHL1 by quantifying inhibition of NTHL1-mediated cleavage and dissociation of quenched duplex DNA oligonucleotides, measured as fluorescence at 594 nm.

G/T mismatch-specific thymine DNA glycosylase (Homo sapiens), sequence (Q13569 whole entry): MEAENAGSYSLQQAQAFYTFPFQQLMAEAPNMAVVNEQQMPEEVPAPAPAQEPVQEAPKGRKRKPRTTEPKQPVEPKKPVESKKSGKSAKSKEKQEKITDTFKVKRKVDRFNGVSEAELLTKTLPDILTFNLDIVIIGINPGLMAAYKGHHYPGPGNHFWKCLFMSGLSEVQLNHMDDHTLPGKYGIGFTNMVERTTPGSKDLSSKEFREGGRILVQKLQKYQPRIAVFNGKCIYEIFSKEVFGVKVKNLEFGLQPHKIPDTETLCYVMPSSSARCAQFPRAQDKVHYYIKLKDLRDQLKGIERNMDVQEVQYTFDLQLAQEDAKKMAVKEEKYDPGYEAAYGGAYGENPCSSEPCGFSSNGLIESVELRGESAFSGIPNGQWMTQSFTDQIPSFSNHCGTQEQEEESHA
Methyl-CpG-binding domain protein 4 (Homo sapiens), sequence (O95243 whole entry, the tested form may be a part): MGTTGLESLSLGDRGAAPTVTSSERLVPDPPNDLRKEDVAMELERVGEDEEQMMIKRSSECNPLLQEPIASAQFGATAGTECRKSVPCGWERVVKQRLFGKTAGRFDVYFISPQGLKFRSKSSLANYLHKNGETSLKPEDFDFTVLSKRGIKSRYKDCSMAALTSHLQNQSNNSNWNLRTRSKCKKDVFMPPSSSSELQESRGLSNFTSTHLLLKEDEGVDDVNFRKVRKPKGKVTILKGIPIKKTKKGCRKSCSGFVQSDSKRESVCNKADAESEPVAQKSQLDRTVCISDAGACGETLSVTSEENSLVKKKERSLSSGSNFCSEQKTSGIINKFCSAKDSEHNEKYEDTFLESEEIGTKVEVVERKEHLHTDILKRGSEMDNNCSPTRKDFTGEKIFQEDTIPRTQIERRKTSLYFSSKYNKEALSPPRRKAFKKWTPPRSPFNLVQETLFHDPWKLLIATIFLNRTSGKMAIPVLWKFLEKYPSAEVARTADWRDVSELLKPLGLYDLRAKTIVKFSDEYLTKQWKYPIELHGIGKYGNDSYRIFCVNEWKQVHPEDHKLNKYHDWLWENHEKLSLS
Uracil-DNA glycosylase (Homo sapiens), sequence (P13051 whole entry, the tested form may be a part): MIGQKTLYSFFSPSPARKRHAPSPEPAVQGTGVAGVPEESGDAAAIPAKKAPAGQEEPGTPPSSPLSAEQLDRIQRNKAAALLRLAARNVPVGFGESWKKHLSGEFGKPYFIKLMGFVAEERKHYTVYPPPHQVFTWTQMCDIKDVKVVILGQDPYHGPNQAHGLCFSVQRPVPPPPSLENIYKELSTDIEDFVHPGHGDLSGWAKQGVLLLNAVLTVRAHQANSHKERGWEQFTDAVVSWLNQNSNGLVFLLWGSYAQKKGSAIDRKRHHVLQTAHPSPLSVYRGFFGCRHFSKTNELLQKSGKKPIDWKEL
DNA-3-methyladenine glycosylase (Homo sapiens), sequence (P29372 whole entry): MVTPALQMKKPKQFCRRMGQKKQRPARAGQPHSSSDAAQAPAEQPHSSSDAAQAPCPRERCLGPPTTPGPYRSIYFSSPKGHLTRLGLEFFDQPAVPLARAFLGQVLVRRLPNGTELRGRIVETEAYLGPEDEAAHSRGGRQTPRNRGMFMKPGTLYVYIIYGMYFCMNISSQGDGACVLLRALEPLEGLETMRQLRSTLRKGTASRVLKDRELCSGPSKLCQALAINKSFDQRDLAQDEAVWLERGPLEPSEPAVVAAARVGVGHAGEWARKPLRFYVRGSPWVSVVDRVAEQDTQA
N-glycosylase/DNA lyase (Homo sapiens), sequence (O15527 whole entry): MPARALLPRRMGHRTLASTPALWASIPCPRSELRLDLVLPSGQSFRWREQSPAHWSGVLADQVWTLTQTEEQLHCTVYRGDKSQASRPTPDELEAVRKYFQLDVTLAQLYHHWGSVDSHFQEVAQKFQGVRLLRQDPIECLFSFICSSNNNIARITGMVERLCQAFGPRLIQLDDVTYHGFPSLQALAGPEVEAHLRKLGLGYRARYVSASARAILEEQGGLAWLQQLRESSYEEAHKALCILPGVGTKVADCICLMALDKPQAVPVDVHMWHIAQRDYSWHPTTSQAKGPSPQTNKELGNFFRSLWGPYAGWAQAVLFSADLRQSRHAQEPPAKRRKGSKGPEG
Endonuclease 8-like 1 (Homo sapiens), sequence (Q96FI4 whole entry): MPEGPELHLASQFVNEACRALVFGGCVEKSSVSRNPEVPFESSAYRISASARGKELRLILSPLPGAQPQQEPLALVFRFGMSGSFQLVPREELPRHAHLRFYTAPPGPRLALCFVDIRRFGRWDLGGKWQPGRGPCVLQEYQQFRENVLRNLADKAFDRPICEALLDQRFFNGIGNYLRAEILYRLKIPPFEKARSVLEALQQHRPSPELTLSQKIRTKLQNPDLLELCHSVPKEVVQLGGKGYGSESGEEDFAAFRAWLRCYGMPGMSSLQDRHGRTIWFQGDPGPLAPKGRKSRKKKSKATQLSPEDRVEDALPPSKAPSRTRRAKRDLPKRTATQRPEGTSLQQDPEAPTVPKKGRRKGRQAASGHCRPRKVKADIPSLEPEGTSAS

CC(C)(C)c1ccc(S(=O)(=O)Nc2ccc(Cl)cc2C(=O)c2cc[n+]([O-])cc2)cc1
inhibition [1]: 1.79%
inhibition [2]: 3.35%
inhibition [3]: -0.448%
inhibition [4]: -4.97%
inhibition [5]: -0.483%
inhibition [6]: 1.3%

CC(C)NCC(O)COc1cccc2[nH]ccc12 (stereo not drawn)
inhibition [7]: -6.49%
inhibition [1]: -5.87%
inhibition [2]: 2.76%
inhibition [3]: 3.97%
inhibition [4]: -5.48%
inhibition [5]: 4.01%
inhibition [6]: 6.08%

O=c1ccn([C@@H]2O[C@H](COP(=O)(O)OP(=O)(O)O)[C@@H](O)[C@H]2O)c(=O)[nH]1
inhibition [7]: -4.06%
inhibition [1]: -4.12%
inhibition [2]: -1.39%
inhibition [3]: 19.1%
inhibition [4]: 23.4%
inhibition [5]: 2.51%
inhibition [6]: -2.06%

Cc1ccc(/C(=C\CN2CCCC2)c2ccccn2)cc1
inhibition [1]: -5.51%
inhibition [2]: 5.28%
inhibition [8]: -4.67%
inhibition [3]: 1.66%
inhibition [4]: 2.96%
inhibition [5]: -2.48%
inhibition [6]: -1.09%

CCc1nc2c(C)cc(C)nc2[nH]1
inhibition [2]: 2.46%
inhibition [3]: -2.03%
inhibition [4]: -7.66%
inhibition [5]: 6.75%
inhibition [6]: 5.35%

Clc1cccc(Cl)c1NC1=NCCN1
inhibition [1]: -5.49%
inhibition [2]: -1.69%
inhibition [3]: 0.825%
inhibition [4]: 14.7%
inhibition [5]: 1.76%
inhibition [6]: -5.72%

Cc1onc(-c2ccccc2Cl)c1C(=O)N(C)c1ccc(Cl)cc1
inhibition [7]: -8.91%
inhibition [1]: -3.42%
inhibition [2]: -2.13%
inhibition [3]: 12.4%
inhibition [4]: 15.8%
inhibition [5]: 7%
inhibition [6]: -3.37%
inhibition [9]: 3.65%

Cc1cnc(CNCC2(F)CCN(C(=O)c3ccc(F)c(Cl)c3)CC2)nc1
inhibition [7]: -8.07%
inhibition [1]: -1.55%
inhibition [2]: 2.32%
inhibition [3]: 6.93%
inhibition [4]: -3.43%
inhibition [5]: 7.5%
inhibition [6]: 6.04%
inhibition [9]: -8.17%

COCCCN1CCC(NC(=O)c2cc(Cl)c(N)c3c2OCC3)CC1
inhibition [1]: -3.13%
inhibition [2]: -6.73%
inhibition [3]: 2.17%
inhibition [4]: 17.3%
inhibition [5]: -0.983%
inhibition [6]: 8.09%

Nc1nc(NCCc2ccc(O)cc2)nc2nc(-c3ccco3)nn12
inhibition [1]: -7.81%
inhibition [2]: -1.69%
inhibition [3]: -0.119%
inhibition [4]: 18.6%
inhibition [5]: 6%
inhibition [6]: -1.9%
inhibition [9]: -6.72%

Cc1nc(C(=O)N2CCC[C@H]2Cc2nnc(-c3ccccc3)o2)c(-c2ccccc2F)s1
inhibition [7]: -9.58%
inhibition [1]: -0.535%
inhibition [2]: 2.46%
inhibition [8]: -9.49%
inhibition [3]: 15%
inhibition [5]: -1.23%
inhibition [6]: -2.02%
inhibition [10]: 4.86%
inhibition [9]: -4.93%

c1ccc(NCc2ccc(CNc3ccccn3)cc2)nc1
inhibition [1]: -3.65%
inhibition [2]: 3.5%
inhibition [3]: 13.4%
inhibition [4]: -5.87%
inhibition [5]: -4.48%
inhibition [6]: -3.14%

CCOC(=O)c1cnn(-c2ccc(NC(=O)C(Cl)=C(Cl)Cl)cc2)c1C(F)(F)F
inhibition [7]: 2.51%
inhibition [1]: -2.43%
inhibition [2]: -3.99%
inhibition [8]: 1.57%
inhibition [3]: 5.37%
inhibition [5]: 2.71%
inhibition [6]: 17.3%
inhibition [10]: 8%
inhibition [9]: 15%

CN1C[C@@H](NS(=O)(=O)N(C)C)C[C@@H]2c3cccc4c3c(cn4C)C[C@H]21
inhibition [7]: -6.05%
inhibition [1]: -5.21%
inhibition [2]: 13.1%
inhibition [8]: 12.1%
inhibition [3]: 7.57%
inhibition [5]: -0.605%
inhibition [6]: 11.2%
inhibition [10]: -8.51%
inhibition [9]: 2.87%

CC(C)Cc1ccc([C@@H](C)C(=O)NS(C)(=O)=O)cc1
inhibition [7]: -7.7%
inhibition [1]: -2.17%
inhibition [2]: 1.28%
inhibition [3]: 3.68%
inhibition [4]: 19%
inhibition [5]: -1.98%
inhibition [6]: -0.553%
inhibition [9]: 0.354%

N[C@H](C(=O)O)c1ccc(C(=O)O)c(C(=O)O)c1
inhibition [1]: -7.96%
inhibition [2]: -4.06%
inhibition [3]: 4.6%
inhibition [4]: 10.4%
inhibition [5]: 5.76%
inhibition [6]: -6.3%
inhibition [9]: -4.49%

Cc1ccc(-c2ccc(F)cc2COc2ccc(CCC(=O)O)cc2)cc1
inhibition [1]: 31.9%
inhibition [2]: 4.39%
inhibition [8]: 34.9%
inhibition [3]: 27.6%
inhibition [4]: 37.1%
inhibition [5]: 4.26%
inhibition [6]: 13.7%

CCN(Cc1ccncc1)C(=O)C(CO)c1ccccc1 (stereo not drawn)
inhibition [1]: -6.9%
inhibition [2]: -2.58%
inhibition [8]: 1.02%
inhibition [3]: 7.61%
inhibition [4]: 14%
inhibition [5]: 9.75%
inhibition [6]: 3.77%

CNC[C@H](O)c1ccc(O)c(O)c1
inhibition [1]: 30.3%
inhibition [2]: 9.88%
inhibition [8]: 46.8%
inhibition [3]: 37.5%
inhibition [4]: 28.8%
inhibition [6]: 10.2%

CCOC(=O)c1ncn2c1CN(C)C(=O)c1cc(F)ccc1-2
inhibition [7]: -9.3%
inhibition [1]: 0.398%
inhibition [2]: 0.389%
inhibition [8]: -4.21%
inhibition [3]: 9.02%
inhibition [5]: -1.48%
inhibition [6]: -3.91%
inhibition [10]: -6.87%
inhibition [9]: -0.518%

Clc1ccc2nsnc2c1NC1=NCCN1
inhibition [7]: -7.76%
inhibition [1]: -1.01%
inhibition [2]: -3.76%
inhibition [3]: 12%
inhibition [4]: -8.81%
inhibition [5]: 0.515%
inhibition [6]: 6.04%
inhibition [9]: 2.87%

CN1CCN2c3ncccc3Cc3ccccc3C2C1 (stereo not drawn)
inhibition [1]: -6.38%
inhibition [2]: 3.95%
inhibition [3]: -8.16%
inhibition [4]: -2.92%
inhibition [5]: 10%
inhibition [6]: -7.53%

CN(C)C(=O)N[C@H]1CC[C@H](CCN2CCN(c3cccc(Cl)c3Cl)CC2)CC1
inhibition [7]: -3.02%
inhibition [1]: 1.62%
inhibition [2]: -4.8%
inhibition [8]: -1.19%
inhibition [3]: 14.4%
inhibition [5]: 10.2%
inhibition [6]: -7.07%
inhibition [10]: 2.66%
inhibition [9]: 1.03%

CCCn1c(=O)c2[nH]c(-c3ccc(OCC(=O)Nc4ccc(C#N)cc4)cc3)nc2n(CCC)c1=O
inhibition [7]: -6.42%
inhibition [1]: -7.63%
inhibition [3]: 1.64%
inhibition [4]: -3.95%
inhibition [6]: -6.3%

CCN(CC)S(=O)(=O)Nc1cccc(-c2ccc3c(NC(=O)C4CC4)n[nH]c3c2)c1
inhibition [7]: 2.23%
inhibition [1]: -4.92%
inhibition [2]: 9.38%
inhibition [8]: -2.59%
inhibition [3]: 45.5%
inhibition [5]: 5.35%
inhibition [6]: 3.86%
inhibition [10]: 9.15%
inhibition [9]: 11.9%

Clc1cccc(-n2nnnc2NCc2ccccc2Oc2ccccn2)c1Cl
inhibition [7]: -1.01%
inhibition [1]: -2.45%
inhibition [2]: 4.75%
inhibition [8]: 4.1%
inhibition [3]: 0.87%
inhibition [5]: -1.88%
inhibition [6]: 12.9%
inhibition [10]: 4.7%
inhibition [9]: 6.2%

CCC(=N\O)/C(C)=C/c1ccc(F)cc1
inhibition [7]: -0.0369% and -2.61%
inhibition [1]: 8.29% and 3.66%
inhibition [2]: 0.164% and -0.139%
inhibition [4]: -8.19% and -8.38%
inhibition [5]: -6.1% and 1.43%
inhibition [6]: 12.6%
inhibition [9]: 15.6% and 4.45%

Cc1cccc(NC(=O)N[C@@H]2N=C(c3ccccc3)c3ccccc3N(C)C2=O)c1
inhibition [1]: -6.8%
inhibition [3]: 12.3%
inhibition [4]: 10.5%
inhibition [5]: -1.73%
inhibition [6]: 17%
inhibition [9]: -5.61%

Source: ChEMBL document CHEMBL5665443, “Enzyme Inhibitor Single Concentration assay results for EUbOPEN Chemogenomics Library” (2024)
